{"source": "patent US9937104B2", "about": "“Nanostructured antibacterial and remineralizing dental bonding agents and dental bonding systems” (UNIVERSITY OF MARYLAND, BALTIMORE, priority 2012, dated 2018)", "key": {"[1]": {"tested_on": "S. mutans (ATCC 700610, UA159)", "test": "MIC and MBC by serial microdilution", "assay_type": "cell-based, Streptococcus mutans", "details": "for MIC and MBC relative to QADM: compared with QADM", "procedure": "MIC and MBC were measured using S. mutans (ATCC 700610, UA159, American Type Culture, Manassas, Va.). S. mutans is a cariogenic, aerotolerant anaerobic bacterium and the primary causative agent of dental caries (Loesche 1986). MIC and MBC were determined via serial microdilution assays (Imazato S et al. 2006; Huang L et al. 2011). Unpolymerized DMAHM or DMADM monomer was dissolved in brain heart infusion (BHI) broth (BD, Franklin Lakes, N.J.) to give a final concentration of 200 mg/mL. From these starting solutions, serial two fold dilutions were made into 1 mL volumes of BHI broth. 15 μL of stock S. mutans was added to 15 mL of BHI broth with 0.2% sucrose and incubated at 37° C. with 5% CO2. Overnight cultures of S. mutans were adjusted to 2×10^6 CFU/mL with BHI broth, and 50 μL of inocula was added to each well of a 96-well plate containing 50 μL of a series of antibacterial monomer dilution broths. BHI broth with 1×10^6 CFU/mL bacteria suspension without antibacterial agent served as negative control. Chlorhexidine diacetate (CHX) (Sigma, St. Louis, Mo.) served as positive control. The previously-synthesized QADM (Antonucci J M et al. 2012; Cheng L et al. 2012a) served as an antibacterial monomer control. After incubation at 37° C. in 5% CO2 for 48 h, the wells were read for turbidity, referenced by the negative and positive control wells. MIC was determined as the endpoint (the well with the lowest antibacterial agent concentration) where no turbidity could be detected with respect to the controls (Huang L et al. 2011). To determine MBC, an aliquot of 50 μL from each well without turbidity was inoculated on BHI agar plates and incubated at 37° C. in 5% CO2 for 48 h. MBC was determined as the lowest concentration of antibacterial agent that produced no colonies on the plate. The tests were performed in triplicate (Huang L et al. 2011).\nThe use of S. mutans (ATCC 700610, American Type Culture, Manassas, Va.) was approved by the University of Maryland. S. mutans is a cariogenic, aerotolerant anaerobic bacterium and the primary causative agent of dental caries (Deng et al. 2004). MIC and MBC were determined via serial microdilution assays (Imazato et al. 2006; Huang et al. 2011). Unpolymerized DMAHM or DMADDM monomer was dissolved in brain heart infusion (BHI) broth (BD, Franklin Lakes, N.J.) to a concentration of 200 mg/mL. From these starting solutions, serial two fold dilutions were made into 1 mL volumes of BHI broth. […] The wells were read for turbidity after incubation at 37° C. in 5% CO2 for 48 h, referenced by the negative and positive control wells. MIC was defined as the endpoint (the well with the lowest antibacterial agent concentration) where no turbidity could be detected with respect to the controls (Huang et al. 2011). […]"}, "[2]": {"tested_on": "Human gingival fibroblasts (HGF)", "assay_type": "cell-based", "details": "MTT", "procedure": "Human gingival fibroblasts (HGF, ScienCell) were cultured in a fibroblast medium (FM). […] Then, HGF were seeded in 96-well plates at 5,000 cells per well. […] After 4 h, the unreacted dye was removed and 150 μL of dimethyl sulfoxide was added. Absorbance was measured via the microplate reader at 492 nm. […] Cells were also live/dead stained (Molecular Probes) and examined with fluorescence microscopy (TE2000-S, Nikon) as shown in FIG. 15B."}, "[3]": {"tested_on": "mature biofilms (48 hours)", "test": "Mature biofilm (48 hours) CFU, antibacterial monomers in primer and adhesive", "assay_type": "cell-based", "details": "10% mass fraction in primer and adhesive (P&A control)", "procedure": "FIG. 29. Effect of antibacterial monomers from Table 1, with chain length (CL) of 3, 6, 9, 12, 16 and 18, on mature biofilms (48 hours). Each monomer was mixed into the primer and adhesive control (P&A control) at 10% mass fraction (mean+−sd; n=6). […] CL=16 reduced the biofilm CFU by 4 orders of magnitude, compared to control.\nFIG. 31. Effect of mass fraction of the antibacterial monomer DMAHDM (with chain length of 16) on mature biofilms (48 hours) (mean+−sd; n=6). […] DMAHDM at 10% mass fraction reduced the biofilm CFU by nearly 4 orders of magnitude, compared to control."}}, "note": "Entries after “also recorded” stand apart in the source; their conditions may differ."}
{"smiles": "C=C(C)C(=O)OCC[N+](C)(C)CCCCCCCCCCCC.[Br-]", "note": "[DMADDM, dimethylamino dodecyl methacrylate]", "values": [{"measurement": "MIC and MBC relative to those of DMAHM", "setting": "[1]; S. mutans, compared with DMAHM", "value": "more than two orders of magnitude lower; also recorded: three orders of magnitude lower"}, {"measurement": "MIC and MBC relative to QADM", "setting": "[1]; S. mutans", "value": "four orders of magnitude lower"}, {"measurement": "Cytotoxicity compared with BisGMA", "setting": "[2]", "value": "less cytotoxic"}]}
{"smiles": "C=C(C)C(=O)OCC[N+](C)(C)CCCCCCCCCCCCCCCC.[Br-]", "note": "[DMAHDM, dimethylamino hexadecyl methacrylate]", "values": [{"measurement": "MBC and MIC potency relative to chain length 12", "setting": "[1]; compared with chain length 12 monomer", "value": "an order of magnitude more potent"}, {"measurement": "Reduction of mature biofilm CFU compared to control", "setting": "[3]", "value": "4 orders of magnitude"}]}
{"smiles": "C=C(C)C(=O)OCC[N+](C)(C)CCCCCC.[Br-]", "note": "[DMAHM]", "values": [{"measurement": "MIC and MBC relative to QADM", "setting": "[1]; S. mutans", "value": "a lower concentration, by an order of magnitude"}]}
{"smiles": "C=C(C)C(=O)OCCCCCCCCCCCC[n+]1ccccc1.[Br-]", "note": "[MDPB, reference compound]", "values": [{"measurement": "Cytotoxicity compared with BisGMA", "setting": "[2]", "value": "less cytotoxic"}]}
